Data as given in US11712404B2 (priority 2018, dated 2023).

Experiments:
[1] = target: T1, matrix metalloproteinase 2 (MMP-2) (Homo sapiens, UniProt P08253); assay: MMP-2 incubation, fluorometric assay; format: biochemical; conditions: 0.02 mM monomer, 24 hours at 37° C., fluorescence Ex/Em=490/525 nm
T1 sequence (P08253 110-660): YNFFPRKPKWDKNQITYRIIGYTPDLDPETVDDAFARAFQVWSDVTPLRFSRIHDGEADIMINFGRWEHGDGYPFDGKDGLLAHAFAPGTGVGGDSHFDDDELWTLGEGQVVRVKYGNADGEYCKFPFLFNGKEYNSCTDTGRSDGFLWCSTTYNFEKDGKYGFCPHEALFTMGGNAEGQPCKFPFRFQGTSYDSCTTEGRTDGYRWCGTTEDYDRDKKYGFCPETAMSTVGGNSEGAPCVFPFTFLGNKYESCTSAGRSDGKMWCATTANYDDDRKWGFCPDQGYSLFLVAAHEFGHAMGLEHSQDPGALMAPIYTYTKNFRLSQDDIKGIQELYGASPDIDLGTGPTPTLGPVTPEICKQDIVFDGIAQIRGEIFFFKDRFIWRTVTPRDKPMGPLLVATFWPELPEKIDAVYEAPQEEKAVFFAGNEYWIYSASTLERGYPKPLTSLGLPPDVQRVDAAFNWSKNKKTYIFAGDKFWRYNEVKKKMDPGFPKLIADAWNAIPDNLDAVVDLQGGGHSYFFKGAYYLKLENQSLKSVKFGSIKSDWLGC
Procedure: MMP-2 incubation was prepared at 0.02 mM monomer concentration and incubated at 24 hours at 37° C. and degradation from MMP was measured via a fluorometric assay utilizing a plate reader.
BB94 is a commercial, known inhibitor of MMP-2. Plate reader fluorescence was set at Ex/Em=490/525 nm. Lower fluorescence signal indicates enzyme inhibition. Initial study indicate HEMA and HEMAM inhibition of MMP-2.

[2] = Monomer degradation in low pH environment (1H NMR); conditions: neat monomer, 30 days
[3] = at 30° C. and 1 Hz; cited from earlier work
[4] = Water sorption and solubility (ISO 4049); format: physicochemical; conditions: for water sorption: one week in water
Procedure: The same samples used in the polymerization kinetics test were stored dry at room temperature for 24 hs, then used for the water sorption (WS) and solubility (SL) test, according to ISO 4049 (REF). The initial mass (M1) was recorded and the volume calculated following the equation: V=h×πr^2 where h (mm) is the sample height and r (mm) is the sample radius.
Each sample was placed in a tight-close glass vial with 5 glass beads on the bottom to ensure the whole surface of the sample was exposed to water, and then the vial was filled by 5 ml of double-distilled water and kept closed for one week. The samples were then removed from water, patted dry and weighed again (M2) and placed in a desiccator until mass stabilization (M3) was observed. Water sorption (WS) and solubility (SL) were calculated according to the equations:
[formula] and the results were converted into […], where V is the volume of the specimen. Dentin Microtensile Bond Strength
The same samples used in the polymerization kinetics were tested for water sorption and solubility, according to [25]. Briefly, the mass of the disks was determined before (m1) and after immersion in distilled water for one week (m2). The disks were then stored in a desiccator until the mass stabilized (m3), which took around one week. Water sorption (WS) and solubility (SL) were calculated using the following equations:
[formula] where V is the volume of the specimen. 2.4 Microtensile bond strength

[5] = Neat monomer incubation in water, remaining monomer by HPLC; conditions: neat compound incubated in water
Procedure: (§1) Monomers were prepared to a concentration of 0.15 mM for water and CE/PCE incubations and incubated at 72 hours at 37° C.
(§2) Degradation from CE and PCE was monitored via high performance liquid chromatography (HPLC) and measured via initial and post incubation monomer area difference.
(§3) This was calculated in the decrease in absorbance area measured by HPLC at 227 nm wavelength. Degradation was further verified by the detection of methacrylic acid.

[6] = test system: cholinesterase (CE) and pseudocholinesterase (PCE); assay: Neat monomer incubation with cholinesterase / pseudocholinesterase, HPLC; conditions: neat compound in the presence of cholinesterase
Procedure: as §1, §2, §3

SMILES	water sorption ([4]; UDMA mixtures) [μg/mm3]	degradation under aqueous conditions [5]	degraded monomers under enzymatic conditions [6] [%]	other results
C=C(C)C(=O)NCCO [HEMAM, N-Hydroxyethyl methacrylamide]				inhibition of MMP-2 [1]: inhibition; degradation ([2]; pH 1, 37° C.): 6.0 (0) %; degradation ([2]; pH 2, 37° C.): did not show any significant amount of degradation products
C=C(C)C(=O)OCC(O)COc1ccc(C(C)(C)c2ccc(OCC(O)COC(=O)C(=C)C)cc2)cc1 (stereo not shown) [BisGMA, Bisphenol A glycerolate dimethacrylate]				initial viscosity [3]: 1369 Pa·s
C=C(C)C(=O)OCCO [HEMA, 2-Hydroxyethyl methacrylate]	102.8	8%	52	inhibition of MMP-2 [1]: inhibition; degradation ([2]; pH 1, 37° C.): 69.0 (2.3) %; degradation ([2]; pH 2, 37° C.): 10.5 (0.7) %
C=CC(=O)N(C)CCO [HEM, N-(2-hydroxyethyl)-N-methylacrylamide]	203.5			water sorption ([4]; BisGMA co-polymerizations): 38.7 μg/mm3
C=C(C)C(=O)OCCOC(=O)NCCC(C)CC(C)(C)CNC(=O)OCCOC(=O)C(=C)C (stereo not shown) [UDMA, urethane dimethacrylate]				initial viscosity [3]: 28 Pa·s
C=CC(=O)N(C)C [DMAM, N.N-Dimethylacrylamide]	224.7			solubility ([4]; BisGMA co-polymerization): 52.3 μg/mm3; solubility ([4]; UDMA co-polymerization): 44.3 μg/mm3
C=C(C)C(=O)NC(C)(C)CO [Monomer 2dMM, N-(1-hydroxy-2-methylpropan-2-yl)methacrylamide]	102.7	virtually no degradation	8	
C=C(C)C(=O)NC(CC)CO (stereo not shown) [Monomer 2EM, N-(1-hydroxybutan-2-yl)methacrylamide]	102.7	virtually no degradation	22	
